Results published in ChEMBL document CHEMBL1155103, “Synthesis and SAR of novel, potent and orally bioavailable benzimidazole inhibitors of poly(ADP-ribose) polymerase (PARP) with a quaternary methylene-amino substituent” (Bioorg Med Chem Lett, 2008).
Each block holds one compound with its values, some of them ahead of it. The source made the active and inactive calls. No cut-off for these calls is given here.

Assays:
[1] = Volume of distribution in mouse at 5 mg/kg, iv and 10 mg/kg, po; assay type: ADME, organism-based; conditions: in vivo
[2] = AUC in mouse at 10 mg/kg, po; assay type: ADME, organism-based; set-up: dose 10 mg/kg, route oral; conditions: plasma
[3] = Half life in mouse at 5 mg/kg, iv; assay type: ADME, organism-based; set-up: dose 5 mg/kg, route intravenous; conditions: in vivo
[4] = Oral bioavailability in mouse at 10 mg/kg; assay type: ADME, organism-based; conditions: in vivo
[5] = target: T1, Poly [ADP-ribose] polymerase 1 (Homo sapiens, UniProt P09874); assay: Inhibition of PARP1 in cell based assay
[6] = target: T1, Poly [ADP-ribose] polymerase 1; assay: Inhibition of PARP1
[7] = Clearance in mouse at 5 mg/kg, iv and 10 mg/kg, po; assay type: ADME, organism-based; conditions: in vivo
B16-F10 = assay: Potentiation of temozolomide-induced cytotoxicity in mouse B16F10 cells […] C57BL/6 mouse melanoma model assessed as reduction in tumor volume at 30 mg/kg, po; assay type: functional, organism-based; set-up: dose 30 mg/kg
[8] = Clearance in dog at 2.5 mg/kg, iv and 2.5 mg/kg, po; assay type: ADME, organism-based, Canis lupus familiaris; conditions: in vivo
[9] = Clearance in mouse at 3 mg/kg, iv and 10 mg/kg, po; assay type: ADME, organism-based; conditions: in vivo
[10] = Half life in monkey at 2.5 mg/kg, iv and 2.5 mg/kg, po; assay type: ADME, organism-based, Macaca mulatta; conditions: rhesus monkey, in vivo
[11] = Volume of distribution in monkey at 2.5 mg/kg, iv and 2.5 mg/kg, po; assay type: ADME, organism-based, Macaca mulatta; conditions: rhesus monkey, in vivo
[12] = Volume of distribution in mouse at 3 mg/kg, iv and 10 mg/kg, po; assay type: ADME, organism-based; conditions: in vivo
[13] = Clearance in monkey at 2.5 mg/kg, iv and 2.5 mg/kg, po; assay type: ADME, organism-based, Macaca mulatta; conditions: rhesus monkey, in vivo
[14] = Oral bioavailability in dog at 2.5 mg/kg; assay type: ADME, organism-based, Canis lupus familiaris; conditions: in vivo
[15] = Oral bioavailability in monkey at 2.5 mg/kg; assay type: ADME, organism-based, Macaca mulatta; conditions: rhesus monkey, in vivo
[16] = Half life in dog at 2.5 mg/kg, iv and 2.5 mg/kg, po; assay type: ADME, organism-based, Canis lupus familiaris; conditions: in vivo
[17] = AUC in rat at 5 mg/kg, po; assay type: ADME, organism-based; set-up: dose 5 mg/kg, route oral; conditions: plasma
[18] = Half life in rat at 5 mg/kg, iv and 5 mg/kg, po; assay type: ADME, organism-based; conditions: in vivo
[19] = Oral bioavailability in rat at 5 mg/kg; assay type: ADME, organism-based; conditions: in vivo
[20] = Volume of distribution in dog at 2.5 mg/kg, iv and 2.5 mg/kg, po; assay type: ADME, organism-based, Canis lupus familiaris; conditions: in vivo
[21] = Clearance in rat at 5 mg/kg, iv and 5 mg/kg, po; assay type: ADME, organism-based; conditions: in vivo
[22] = Volume of distribution in rat at 5 mg/kg, iv and 5 mg/kg, po; assay type: ADME, organism-based; conditions: in vivo
[23] = Half life in mouse at 3 mg/kg, iv and 10 mg/kg, po; assay type: ADME, organism-based; conditions: in vivo
[24] = AUC in dog at 2.5 mg/kg, po; assay type: ADME, organism-based, Canis lupus familiaris; set-up: dose 2.5 mg/kg, route oral; conditions: plasma
[25] = AUC in monkey at 2.5 mg/kg, po; assay type: ADME, organism-based, Macaca mulatta; set-up: dose 2.5 mg/kg, route oral; conditions: rhesus monkey, plasma

T1 sequence (P09874 whole entry): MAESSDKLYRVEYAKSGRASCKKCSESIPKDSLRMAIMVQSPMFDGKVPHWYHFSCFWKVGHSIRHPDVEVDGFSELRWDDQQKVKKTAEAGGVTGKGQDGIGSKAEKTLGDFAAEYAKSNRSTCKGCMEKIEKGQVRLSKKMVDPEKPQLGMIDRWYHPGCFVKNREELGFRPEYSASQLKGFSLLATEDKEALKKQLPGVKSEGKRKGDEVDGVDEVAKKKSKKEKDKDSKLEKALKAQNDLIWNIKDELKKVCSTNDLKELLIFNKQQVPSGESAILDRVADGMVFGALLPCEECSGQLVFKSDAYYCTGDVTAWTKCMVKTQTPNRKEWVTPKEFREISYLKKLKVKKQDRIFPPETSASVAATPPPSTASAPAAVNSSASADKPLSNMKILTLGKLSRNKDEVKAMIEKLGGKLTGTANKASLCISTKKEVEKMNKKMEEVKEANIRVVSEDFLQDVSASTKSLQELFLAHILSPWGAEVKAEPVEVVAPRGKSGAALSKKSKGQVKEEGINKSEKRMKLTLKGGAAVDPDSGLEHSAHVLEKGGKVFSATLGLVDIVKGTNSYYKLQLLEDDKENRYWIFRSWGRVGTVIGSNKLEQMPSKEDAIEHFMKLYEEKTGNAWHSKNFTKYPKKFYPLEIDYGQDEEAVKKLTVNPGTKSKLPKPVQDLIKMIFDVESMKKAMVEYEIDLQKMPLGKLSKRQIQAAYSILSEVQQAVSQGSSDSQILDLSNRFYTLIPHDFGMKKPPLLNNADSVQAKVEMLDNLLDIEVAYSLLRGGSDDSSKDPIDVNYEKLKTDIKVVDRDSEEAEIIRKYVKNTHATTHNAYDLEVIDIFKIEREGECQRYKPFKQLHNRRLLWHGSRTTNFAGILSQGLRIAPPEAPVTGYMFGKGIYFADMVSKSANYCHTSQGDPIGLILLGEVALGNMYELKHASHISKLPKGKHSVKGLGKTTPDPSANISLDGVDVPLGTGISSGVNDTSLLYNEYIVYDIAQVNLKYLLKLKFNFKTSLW

SMILES: CC(C)(NCC1CC1)c1nc2c(C(N)=O)cccc2[nH]1
Vd [1]: 13.3 L/kg
AUC [2]: 3.38 µM·h
half-life [3]: 48 min
bioavailability [4]: 100%
EC50 [5]: 2 nM
Ki [6]: 7 nM
clearance [7]: 192 mL/min/kg

SMILES: CC(C)(c1nc2cccc(C(N)=O)c2[nH]1)N1CCCCC1
EC50 [5]: 3.1 nM
Ki [6]: 15 nM

SMILES: CC(NC1CCCCC1)c1nc2c(C(N)=O)cccc2[nH]1 (stereo not drawn)
Ki [6]: 53 nM

SMILES: NC(=O)c1cccc2[nH]c(C3(N)Cc4ccccc4C3)nc12
Ki [6]: 58 nM

SMILES: CN(C)C(C)(C)c1nc2cccc(C(N)=O)c2[nH]1
EC50 [5]: 1.8 nM
Ki [6]: 9 nM

SMILES: CC(NCCc1ccccc1)c1nc2c(C(N)=O)cccc2[nH]1 (stereo not drawn)
Ki [6]: 35 nM

SMILES: CC(CCNC1CCCC1)c1nc2c(C(N)=O)cccc2[nH]1 (stereo not drawn)
Ki [6]: 45 nM

SMILES: NC(=O)c1cccc2[nH]c(C3(N)CC3)nc12
Ki [6]: 25 nM

SMILES: CNC(C)(C)c1nc2cccc(C(N)=O)c2[nH]1
Vd [1]: 3.5 L/kg
AUC [2]: 8.64 µM·h
half-life [3]: 36 min
bioavailability [4]: 85%
EC50 [5]: 1.3 nM
Ki [6]: 4 nM
clearance [7]: 70 mL/min/kg

SMILES: NC(=O)c1cccc2[nH]c(C3(N)CCc4ccccc4C3)nc12 (stereo not drawn)
Ki [6]: 18 nM

SMILES: CC(C)(NC1CCCC1)c1nc2c(C(N)=O)cccc2[nH]1
EC50 [5]: 4 nM
Ki [6]: 9 nM

SMILES: NC(=O)c1cccc2[nH]c(C3(N)CCC3)nc12
Ki [6]: 25 nM

SMILES: NC(=O)c1cccc2[nH]c(C3(N)CCCCC3)nc12
Ki [6]: 50 nM

SMILES: CC(NC1CCCC1)c1nc2c(C(N)=O)cccc2[nH]1 (stereo not drawn)
Ki [6]: 33 nM

SMILES: CN(C1CCC1)C(C)(C)c1nc2c(C(N)=O)cccc2[nH]1
Ki [6]: 19 nM

SMILES: CN(CC1CCOC1)C(C)(C)c1nc2cccc(C(N)=O)c2[nH]1 (stereo not drawn)
Ki [6]: 17 nM

SMILES: CC(C)(NCCc1ccccc1)c1nc2c(C(N)=O)cccc2[nH]1
EC50 [5]: 9 nM
Ki [6]: 37 nM

More lines, main results first:

Ki [6]: 140 nM
SMILES: CC(NS(=O)(=O)N(C)C)c1nc2c(C(N)=O)cccc2[nH]1 (stereo not drawn)

Ki [6]: 24 nM
SMILES: CC(NCC1CC1)c1nc2c(C(N)=O)cccc2[nH]1 (stereo not drawn)

Ki [6]: 19 nM
SMILES: CC(C)(N)c1nc2c(C(N)=O)cccc2[nH]1

Ki [6]: 870 nM
SMILES: CCNC(=O)NC(C)(C)c1nc2c(C(N)=O)cccc2[nH]1

Vd [1]: 1.8 L/kg
AUC [2]: 6.33 µM·h
half-life [3]: 24 min
bioavailability [4]: 52%
EC50 [5]: 0.9 nM
Ki [6]: 3 nM
clearance [7]: 50 mL/min/kg
SMILES: CC(C)(c1nc2c(C(N)=O)cccc2[nH]1)N1CCCC1
Activity (B16-F10): Active

Ki [6]: 32 nM
SMILES: CC(CCN)c1nc2c(C(N)=O)cccc2[nH]1 (stereo not drawn)

EC50 [5]: 3 nM
Ki [6]: 10 nM
SMILES: CCCNC(C)(C)c1nc2c(C(N)=O)cccc2[nH]1

Ki [6]: 41 nM
SMILES: CCCNC(C)c1nc2c(C(N)=O)cccc2[nH]1 (stereo not drawn)

Ki [6]: 50 nM
SMILES: CC(N)c1nc2c(C(N)=O)cccc2[nH]1 (stereo not drawn)

Ki [6]: 61 nM
SMILES: CCN(CC)C(C)c1nc2c(C(N)=O)cccc2[nH]1 (stereo not drawn)

Ki [6]: 12 nM
SMILES: CC(C)NC(C)c1nc2c(C(N)=O)cccc2[nH]1 (stereo not drawn)

Vd [1]: 2.1 L/kg
clearance [8]: 14.2 mL/min/kg
AUC [2]: 5.78 µM·h
half-life [3]: 36 min
bioavailability [4]: 82%
clearance [9]: 66.7 mL/min/kg
half-life [10]: 36 min
Vd [11]: 1.1 L/kg
Vd [12]: 2.1 L/kg
clearance [13]: 23.3 mL/min/kg
bioavailability [14]: 70.5%
bioavailability [15]: 12.6%
half-life [16]: 168 min
AUC [17]: 0.74 µM·h
half-life [18]: 60 min
EC50 [5]: 2 nM
Ki [6]: 7 nM
bioavailability [19]: 26%
Vd [20]: 2.9 L/kg
clearance [7]: 66.7 mL/min/kg
clearance [21]: 85 mL/min/kg
Vd [22]: 3.7 L/kg
half-life [23]: 36 min
AUC [24]: 6.07 µM·h
AUC [25]: 0.65 µM·h
SMILES: CC(C)NC(C)(C)c1nc2c(C(N)=O)cccc2[nH]1
Activity (B16-F10): Active
